Measured values taken from patent publication US20230398130A1, “METHODS AND COMPOSITIONS FOR DIFFERENTIATING STEM CELLS” (Massachusetts Institute of Technology, priority 2020, published 2023).

How the values were obtained:
[1] = test system: ISC-enriched organoids; experiment: Primary screen, 384-well 2.5-D organoid differentiation (ENR+CD, 6 days): basal lysozyme secretion (LYZ.NS); format: cell-based, murine; conditions: for Dose.FC.LYZ.NS (log 2 fold change, basal lysozyme secretion): vs plate median
Source text: (§1) High-throughput screening.

[2] = test system: ISC-enriched organoids; experiment: Primary screen, 384-well 2.5-D organoid differentiation (ENR+CD, 6 days): carbachol-induced lysozyme secretion (LYZ.S); format: cell-based, murine; conditions: vs plate median
Source text: as §1

[3] = test system: ISC-enriched organoids; experiment: Primary screen, 384-well 2.5-D organoid differentiation (ENR+CD, 6 days, Target Selective Inhibitor Library, vs whole-plate median): ATP (CellTiter-Glo 3D, CTG); conditions: for Dose.FC.CTG (log 2 fold change, ATP): vs plate median

Row | SMILES | Z.LYZ.NS (standard z score) ([1]; dose 0.08 uM) | Dose.FC.LYZ.NS (log 2 fold change, basal lysozyme secretion) ([1]; dose 0.08 uM) | Z.LYZ.NS (standard z score) ([1]; dose 0.40 uM) | Dose.FC.LYZ.NS (log 2 fold change, basal lysozyme secretion) ([1]; dose 0.40 uM) | Z.LYZ.NS (standard z score) ([1]; dose 2.00 uM) | Dose.FC.LYZ.NS (log 2 fold change, basal lysozyme secretion) ([1]; dose 2.00 uM) | Z.LYZ.NS (standard z score) ([1]; dose 10.00 uM) | Dose.FC.LYZ.NS (log 2 fold change, basal lysozyme secretion) ([1]; dose 10.00 uM) | Dose.FC.LYZ.S (log 2 fold change, carbachol-induced lysozyme secretion) ([2]; dose 0.08 uM) | Dose.FC.LYZ.S (log 2 fold change, carbachol-induced lysozyme secretion) ([2]; dose 0.40 uM) | Dose.FC.LYZ.S (log 2 fold change, carbachol-induced lysozyme secretion) ([2]; dose 2.00 uM) | Dose.FC.LYZ.S (log 2 fold change, carbachol-induced lysozyme secretion) ([2]; dose 10.00 uM) | Z.CTG (standard z score) ([3]; dose 0.08 uM) | Dose.FC.CTG (log 2 fold change, ATP) ([3]; dose 0.08 uM) | Z.CTG (standard z score) ([3]; dose 0.40 uM) | Dose.FC.CTG (log 2 fold change, ATP) ([3]; dose 0.40 uM) | Z.CTG (standard z score) ([3]; dose 2.00 uM) | Dose.FC.CTG (log 2 fold change, ATP) ([3]; dose 2.00 uM) | Z.CTG (standard z score) ([3]; dose 10.00 uM) | Dose.FC.CTG (log 2 fold change, ATP) ([3]; dose 10.00 uM)
1 | COc1ccc2cc(-c3nc(-c4ccc([S+](C)[O-])cc4)[nH]c3-c3ccncc3)ccc2c1 (stereo not drawn) [Tie2 kinase inhibitor] | 0.080 | 0.009 | 0.019 | 0.002 | 1.577 | 0.181 | −0.274 | −0.031 | 0.018 | −0.021 | 0.024 | −0.097 | 0.012 | 0.005 | 0.177 | 0.074 | −0.750 | −0.314 | −1.311 | −0.549
2 | C[C@@H]1CCN(C(=O)CC#N)C[C@@H]1N(C)c1ncnc2[nH]ccc12 [Tofacitinib (CP-690550, Tasocitinib)] | −0.146 | −0.017 | −0.132 | −0.015 | −0.061 | −0.007 | −0.036 | −0.004 | 0.022 | 0.010 | 0.025 | 0.010 | 0.312 | 0.130 | 0.595 | 0.249 | 0.278 | 0.117 | 0.563 | 0.236
3 | CC(C)C[C@@H](C(=O)N[C@H](C(=O)OC1CCCC1)c1ccccc1)[C@H](O)C(=O)NO [Tosedostat (CHR2797)] | −0.022 | −0.002 | −0.925 | −0.106 | −0.432 | −0.050 | −1.499 | −0.172 | −0.027 | −0.134 | −0.128 | −0.276 | −0.232 | −0.097 | 0.123 | 0.051 | −0.480 | −0.201 | −1.117 | −0.468
